How the values were obtained:
Type in all cases: in vivo
[1] = system: bird's eye speedwell (Veronica persica Poir.), Vp; experiment: Test Example 4: herbicidal effect on upland weeds after emergence; conditions: dosage 5 kg/ha; sprayed after emergence; judged 14 days after treatment
In short: (§1)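 Weeds and soybean grown in soil-filled vats to set leaf stages, then sprayed post-emergence with the compound at a prescribed concentration. Weed-killing rate and crop phytotoxicity judged 14 days after treatment.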

[2] = system: cocklebur (Xanthium strumarium L.), Xs; experiment: as above; conditions: dosage 5 kg/ha; sprayed after emergence; judged 14 days after treatment
In short: as §1

[3] = system: velvetleaf (Abutilon theophtasti L.), At; experiment: as above; conditions: dosage 5 kg/ha; sprayed after emergence; judged 14 days after treatment
In short: as §1

[4] = system: barnyard grass (Echinochloa crus-galli Beauv.), Ec; experiment: as above; conditions: dosage 5 kg/ha; sprayed after emergence; judged 14 days after treatment
In short: as §1

[5] = system: cleavers (Galium aparine L.), Ga; experiment: as above; conditions: dosage 5 kg/ha; sprayed after emergence; judged 14 days after treatment
In short: as §1

[6] = system: forxtail grass (Alopecurus aequalis var. amurensis Ohwi), Am; experiment: as above; conditions: dosage 5 kg/ha; sprayed after emergence; judged 14 days after treatment
In short: as §1

[7] = system: bulrush (Scirpus juncoides Roxb.); experiment: Test Example 2: herbicidal effect on paddy field weeds after emergence; conditions: Dosage 5 kg/ha; one-leaved stage; 21 days after treatment
In short: (§2)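 Weeds in flooded paddy-soil pots were grown to the one-leaved stage, then the soil was treated with the compound solution at a set dosage.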

[8] = system: barnyard grass (Echinochloa crus-galli Beauv.); experiment: as above; conditions: Dosage 5 kg/ha; one-leaved stage; 21 days after treatment
In short: as §2

[9] = system: monochoria (Monochoria vaginalis Presl); experiment: as above; conditions: Dosage 5 kg/ha; one-leaved stage; 21 days after treatment
In short: as §2

[10] = system: bulrush (Scirpus juncoides Roxb.); experiment: Test Example 1: herbicidal effect on paddy field weeds before emergence; conditions: Dosage 5 kg/ha
In short: (§3)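 Seeds of both weeds, still ungerminated, in soil pots held under paddy conditions received a set dose of test solution as soil treatment. After twenty-one days, control relative to untreated pots was calculated and rated on a scoring scale.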

[11] = system: barnyard grass (Echinochloa crus-galli Beauv.); experiment: as above; conditions: Dosage 5 kg/ha
In short: as §3

wheat (Wh) = experiment: Test Example 3: phytotoxicity to upland crop plants, treatment before emergence; conditions: dosage 5 kg/ha
In short: (§4)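 Pre-emergence spray of a liquid preparation at a prescribed compound concentration. Soybean and wheat injury was scored against a phytotoxicity criterion 14 days after treatment, alongside weed control.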

soybean plant (So) = experiment: as above; conditions: dosage 5 kg/ha
In short: as §4

[12] = system: bird's eye speedwell (Veronica persica Poir.), Vp; experiment: Test Example 3: herbicidal effect on upland weeds before emergence; conditions: dosage 5 kg/ha
In short: (§5)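 Test compound, formulated as a liquid at a fixed concentration, is sprayed before weed emergence. Two weeks later, kill rate is derived and herbicidal activity is rated.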

[13] = system: cocklebur (Xanthium strumarium L.), Xs; experiment: as above; conditions: dosage 5 kg/ha
In short: as §5

[14] = system: velvetleaf (Abutilon theophtasti L.), At; experiment: as above; conditions: dosage 5 kg/ha
In short: as §5

[15] = system: barnyard grass (Echinochloa crus-galli Beauv.), Ec; experiment: as above; conditions: dosage 5 kg/ha
In short: as §5

[16] = system: cleavers (Galium aparine L.), Ga; experiment: as above; conditions: dosage 5 kg/ha
In short: as §5

[17] = system: forxtail grass (Alopecurus aequalis var. amurensis Ohwi), Am; experiment: as above; conditions: foxtail grass, dosage 5 kg/ha
In short: as §5

wheat = experiment: Test Example 4: phytotoxicity to upland crop plants, treatment after emergence; conditions: dosage 5 kg/ha, sprayed after emergence, judged 14 days after treatment
In short: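 Seeds sown in soil and covered. Plants raised to specified leaf stages. Agent with test compound at a prescribed concentration sprayed. Herbicidal effect and crop damage scored after 14 days as weed-killing rate.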

soybean plant = experiment: as above; conditions: dosage 5 kg/ha, sprayed after emergence, judged 14 days after treatment
In short: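 Post-emergence foliar spray, compound at prescribed concentration, applied at defined leaf stages; weeds plus soybean/wheat grown in soil vats. Read-out: weed-killing rate and crop injury, 14 d post-treatment.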

| SMILES | Herbicidal effect Vp [1] | Herbicidal effect Xs [2] | Herbicidal effect At [3] | Herbicidal effect Ec [4] | Herbicidal effect Ga [5] | Herbicidal effect Am [6] | Post-emergence treatment Bulrush (herbicidal effect) [7] | Post-emergence treatment Barnyard grass (herbicidal effect) [8] | Post-emergence treatment Monochoria (herbicidal effect) [9] | Pre-emergence treatment Bulrush (herbicidal effect) [10] | Pre-emergence treatment Barnyard grass (herbicidal effect) [11] | Phytotoxicity Wh (wheat (Wh)) | Phytotoxicity So (soybean plant (So)) | Herbicidal effect Vp [12] | Herbicidal effect Xs [13] | Herbicidal effect At [14] | Herbicidal effect Ec [15] | Herbicidal effect Ga [16] | Herbicidal effect Am [17] | Phytotoxicity Wh (wheat) | also measured |
| --- | --- | --- | --- | --- | --- | --- | --- | --- | --- | --- | --- | --- | --- | --- | --- | --- | --- | --- | --- | --- | --- |
| CCc1ccc(Cl)c(CC)c1NC(=O)c1cc2c(nc1C(=O)NC1CCCC1)SCCC2 [compound 519] | 5 (Weed-killing rate is 100%.) | 5 (Weed-killing rate is 100%.) | 5 (Weed-killing rate is 100%.) | 5 (Weed-killing rate is 100%.) | 5 (Weed-killing rate is 100%.) | 5 (Weed-killing rate is 100%.) | 5 (Weed-killing rate is 100%.) | 5 (Weed-killing rate is 100%.) | 5 (Weed-killing rate is 100%.) | 5 (Weed-killing rate is 100%.) | 5 (Weed-killing rate is 100%.) | 5 (Crop-killing rate is 100%.) | 4 (Crop-killing rate is 90-99%.) | 5 (Weed-killing rate is 100%.) | 5 (Weed-killing rate is 100%.) | 5 (Weed-killing rate is 100%.) | 5 (Weed-killing rate is 100%.) | 5 (Weed-killing rate is 100%.) | 5 (Weed-killing rate is 100%.) | 5 (Crop-killing rate is 100%.) | Phytotoxicity So (soybean plant): 4 (Crop-killing rate is 90-99%.) |
| Cc1c(Cl)cccc1NC(=O)c1cc2c(nc1C(=O)NCC(C)C)SCCC2 [compound 527] | 5 (Weed-killing rate is 100%.) | 4 (Weed-killing rate is 90-99%.) | 5 (Weed-killing rate is 100%.) | 5 (Weed-killing rate is 100%.) | 5 (Weed-killing rate is 100%.) | 5 (Weed-killing rate is 100%.) | 5 (Weed-killing rate is 100%.) | 5 (Weed-killing rate is 100%.) | 5 (Weed-killing rate is 100%.) | 5 (Weed-killing rate is 100%.) | 5 (Weed-killing rate is 100%.) | 5 (Crop-killing rate is 100%.) | 5 (Crop-killing rate is 100%.) | 5 (Weed-killing rate is 100%.) | 4 (Weed-killing rate is 90-99%.) | 5 (Weed-killing rate is 100%.) | 5 (Weed-killing rate is 100%.) | 5 (Weed-killing rate is 100%.) | 5 (Weed-killing rate is 100%.) | 5 (Crop-killing rate is 100%.) | Phytotoxicity So (soybean plant): 5 (Crop-killing rate is 100%.) |
| CCCNC(=O)c1nc2c(cc1C(=O)Nc1c(CC)ccc(Cl)c1CC)CCSC2 [compound 534] | 5 (Weed-killing rate is 100%.) | 5 (Weed-killing rate is 100%.) | 5 (Weed-killing rate is 100%.) | 5 (Weed-killing rate is 100%.) | 5 (Weed-killing rate is 100%.) | 5 (Weed-killing rate is 100%.) | 5 (Weed-killing rate is 100%.) | 5 (Weed-killing rate is 100%.) | 5 (Weed-killing rate is 100%.) | 5 (Weed-killing rate is 100%.) | 5 (Weed-killing rate is 100%.) | 4 (Crop-killing rate is 90-99%.) | 3 (Crop-killing rate is 70-89%.) | 5 (Weed-killing rate is 100%.) | 5 (Weed-killing rate is 100%.) | 5 (Weed-killing rate is 100%.) | 5 (Weed-killing rate is 100%.) | 5 (Weed-killing rate is 100%.) | 5 (Weed-killing rate is 100%.) | 4 (Crop-killing rate is 90-99%.) | Phytotoxicity So (soybean plant): 4 (Crop-killing rate is 90-99%.) |
| CCCNC(=O)c1nc2c(cc1C(=O)Nc1c(CC)ccc(Cl)c1CC)CSCC2 [compound 558] | 5 (Weed-killing rate is 100%.) | 5 (Weed-killing rate is 100%.) | 5 (Weed-killing rate is 100%.) | 5 (Weed-killing rate is 100%.) | 5 (Weed-killing rate is 100%.) | 5 (Weed-killing rate is 100%.) | 5 (Weed-killing rate is 100%.) | 5 (Weed-killing rate is 100%.) | 5 (Weed-killing rate is 100%.) | 5 (Weed-killing rate is 100%.) | 5 (Weed-killing rate is 100%.) | 5 (Crop-killing rate is 100%.) | 5 (Crop-killing rate is 100%.) | 5 (Weed-killing rate is 100%.) | 5 (Weed-killing rate is 100%.) | 5 (Weed-killing rate is 100%.) | 5 (Weed-killing rate is 100%.) | 5 (Weed-killing rate is 100%.) | 5 (Weed-killing rate is 100%.) | 5 (Crop-killing rate is 100%.) | Phytotoxicity So (soybean plant): 5 (Crop-killing rate is 100%.) |
| CCNC(=O)c1nc2occc2cc1C(=O)Nc1c(CC)ccc(Cl)c1CC [compound 774] | 5 (Weed-killing rate is 100%.) | 5 (Weed-killing rate is 100%.) | 5 (Weed-killing rate is 100%.) | 5 (Weed-killing rate is 100%.) | 5 (Weed-killing rate is 100%.) | 5 (Weed-killing rate is 100%.) | 5 (Weed-killing rate is 100%.) | 5 (Weed-killing rate is 100%.) | 5 (Weed-killing rate is 100%.) | 5 (Weed-killing rate is 100%.) | 5 (Weed-killing rate is 100%.) | 5 (Crop-killing rate is 100%.) | 4 (Crop-killing rate is 90-99%.) | 5 (Weed-killing rate is 100%.) | 5 (Weed-killing rate is 100%.) | 5 (Weed-killing rate is 100%.) | 5 (Weed-killing rate is 100%.) | 5 (Weed-killing rate is 100%.) | 5 (Weed-killing rate is 100%.) | 5 (Crop-killing rate is 100%.) | Phytotoxicity So (soybean plant): 4 (Crop-killing rate is 90-99%.) |

— patent US6444617B1, “Fused-heterocycle dicarboxylic acid diamide derivatives or salts thereof, herbicide and usage thereof” (Nihon Nohyaku Co., Ltd., priority 1998, dated 2002)
